The record followed here is patent US20030199590A1, “Prostaglandin analogues for promotion of hair growth” (priority 2002, published 2003).

The term EC50 denotes the concentration needed to bring the measured effect to its halfway point. As a reminder, the IC50 is the concentration needed to halve the response being measured. The low end stands for higher potency, the high end for lower potency.

Assay [1] has as its target T1, FP receptors (Swiss 3T3 cells expressing FP receptors) (Mus musculus, UniProt P43117).
T1 construct: endogenous in cells; host or cells: Swiss 3T3 cells
In words: FP receptor-mediated phosphoinositide turnover assay. The format is cell-based. The note with it: Table 1; for Emax: Swiss-3T3, 1 h, efficacy relative to standard full agonist (100%), read-out: FP functional (%) agonistic activity; for EC50: [3H]-IPs in Swiss 3T3 cells, read-out: FP functional EC50. Here is the method:
FP receptor-mediated phosphoinositide turnover assay: [^3H]Inositol phosphates ([^3H]-IPs) produced by agonist-mediated activation of phospholipase C in Swiss 3T3 cells expressing FP receptors were quantified as follows. Confluent 3T3 cells were exposed to 1.0-1.5 μCi [^3H]-myo-inositol (18.3 Ci/mmol) in 0.5 ml DMEM for 24-30 hours at 37° C. Then cells were rinsed once with DMEM/F-12 containing 10 mM LiCl, and the agonist stimulation experiment was performed in 0.5 ml of the same medium to facilitate accumulation of [^3H]-IPs. Cells were exposed to the agonist or solvent for 60 min at 37° C. (triplicate determinations), followed by aspiration of the medium and immediate addition of 1 ml of ice-cold 0.1 M formic acid. The plates were kept cold and then frozen. Samples frozen up to one week were thawed prior to chromatographic separation of radiolabeled components. The cell lysates (0.9 ml) were loaded on columns packed with approximately 1 ml AG 1-X8 anion exchange resin. The elution procedure consisted of a wash with 10 ml of H2O, then 8 ml of 50 mM ammonium formate, and finally 4 ml of 1.2 M ammonium formate with 0.1 M formic acid, which was collected in a scintillation vial. To this eluate was added 15 ml of scintillation fluid and the total [^3H]-IPs determined by scintillation counting on a beta-counter. Data were analyzed by the sigmoidal fit function of the Origin Scientific Graphics software (Microcal Software, Northampton, Mass.) to determine agonist potency (EC50 value) and efficacy, relative to the standard cloprostenol.

Another assay addresses T2, FP receptors (Bos taurus, UniProt P37289).
T2 construct: Washed total particulate bovine corpus luteum membranes; from tissue; host or cells: bovine corpus luteum membranes
In words: FP receptor binding assay ([3H]PGF2α, bovine corpus luteum membranes). The note with it: Table 1; [3H]PGF2α, bovine corpus luteum membranes; free acid form. Here is the method: Non-specific binding was defined with 1-10 μM unlabeled PGF2α or fluprostenol. The assays were terminated by vacuum filtration (using Whatman GF/B glass fiber filter previously soaked in 0.3% polyethyleneimine) and the data analyzed by a non-linear, iterative, curve-fitting computer program.

T2 sequence (P37289 whole entry): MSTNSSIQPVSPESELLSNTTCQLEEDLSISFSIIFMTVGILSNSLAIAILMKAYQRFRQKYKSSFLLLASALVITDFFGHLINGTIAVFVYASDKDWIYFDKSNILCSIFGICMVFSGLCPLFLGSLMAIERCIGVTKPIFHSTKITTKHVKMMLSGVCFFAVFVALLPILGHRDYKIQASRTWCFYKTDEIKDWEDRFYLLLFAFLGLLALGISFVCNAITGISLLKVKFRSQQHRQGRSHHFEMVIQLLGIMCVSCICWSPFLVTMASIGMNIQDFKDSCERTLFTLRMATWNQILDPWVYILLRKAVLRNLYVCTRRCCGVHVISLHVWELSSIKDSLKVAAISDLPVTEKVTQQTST
T1 sequence (P43117 whole entry): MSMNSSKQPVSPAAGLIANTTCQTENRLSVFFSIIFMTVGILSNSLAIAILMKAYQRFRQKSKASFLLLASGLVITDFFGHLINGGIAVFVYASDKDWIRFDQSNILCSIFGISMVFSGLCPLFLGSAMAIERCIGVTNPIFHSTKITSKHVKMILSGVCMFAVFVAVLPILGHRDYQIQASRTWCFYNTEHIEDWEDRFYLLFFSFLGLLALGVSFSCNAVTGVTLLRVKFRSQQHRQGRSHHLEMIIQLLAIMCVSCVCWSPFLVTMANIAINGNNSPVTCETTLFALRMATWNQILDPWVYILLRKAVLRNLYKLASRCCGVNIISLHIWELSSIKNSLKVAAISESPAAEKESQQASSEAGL

Regarding `O=C(O)CCC/C=C\C[C@H]1CC[C@@H](O)[C@@H]1/C=C/[C@@H](O)CCc1ccccc1` [Compound 1], in assay [1], the Emax stood at 87.6% and the EC50 was 0.0196 µM. The same molecule showed an IC50 at FP receptors of 0.096 µM.

For `O=C(O)CCC/C=C\C[C@H]1CC[C@@H](O)[C@@H]1CC[C@@H](O)CCc1ccccc1` [Compound 2], in assay [1], the Emax came to 60% and the EC50 worked out at 0.0766 µM. Besides, at FP receptors, the concentration for half-maximal inhibition (IC50) was 0.31 µM.

Regarding `O=C(O)CCC/C=C\C[C@H]1CC[C@@H](O)[C@@H]1/C=C/[C@@H](O)COc1cccc(Cl)c1` [Compound 6], in assay [1], the Emax turned out to be 100% and the EC50 stood at 0.0026 µM. For the same molecule, the IC50 on FP receptors worked out at 0.01 µM.

For `O=C(O)CCC/C=C\C[C@H]1CC[C@@H](O)[C@@H]1CC[C@@H](O)CCc1cccc(Cl)c1` [Compound 8], in assay [1], the Emax was found to be 84% and the EC50 came out at 0.0066 µM. The same molecule gave an IC50 on FP receptors of 0.047 µM.

Regarding `O=C(O)CCC/C=C\C[C@H]1CC[C@@H](O)[C@@H]1CC[C@@H](O)C1Cc2ccccc2C1` [Compound 11], in assay [1], the Emax is 60% and the EC50 worked out at 0.108 µM. This molecule also came in with an IC50 at FP receptors of 1.9 µM.

As to `O=C(O)CCC/C=C\C[C@H]1[C@@H](O)CO[C@@H]1/C=C/[C@H](O)COc1cccc(Cl)c1` [Compound 14], in assay [1], the Emax worked out at 67% and the concentration for a half-maximal effect (EC50) was 0.194 µM. This molecule showed a half-inhibitory concentration (IC50) on FP receptors of 7.3 µM.

As to `O=C(O)CCC/C=C\C[C@H]1[C@@H](O)CO[C@@H]1/C=C/[C@@H](O)COc1cccc(Cl)c1` [Compound 15], in assay [1], the Emax worked out at 88% and the EC50 amounted to 0.058 µM. The IC50 on FP receptors came to 0.89 µM.

With `O=C(O)CCC/C=C\C[C@@H]1[C@@H](CC[C@@H](F)COc2cccc(Cl)c2)[C@H](O)C[C@@H]1O` [Compound 17], in assay [1], the Emax worked out at 64% and the EC50 came to 0.009 µM. The molecule further showed an IC50 on FP receptors of 0.026 µM.

Consider `O=C(O)CCCCCC[C@H]1C(=O)CO[C@@H]1/C=C/[C@@H](O)COc1ccccc1` [Compound 20], for which the Emax in assay [1] stood at 67%. The IC50 on FP receptors came out at 9.7 µM.

Consider `O=C(O)CCCCCC[C@H]1C(=O)CO[C@@H]1/C=C/[C@H](O)COc1ccccc1` [Compound 21], for which the concentration giving a half-maximal response (EC50) in assay [1] was above 10 µM. This molecule also showed an IC50 on FP receptors of 78 µM.

Take `O=C(O)CCC/C=C\C[C@@H]1[C@@H](CC[C@@H](F)COc2cccc(C(F)(F)F)c2)[C@H](O)C[C@@H]1O` [Compound 24]: in assay [1], the Emax is 85% and the EC50 is 0.0125 µM. Besides, on FP receptors, the IC50 worked out at 0.23 µM.

With `O=C(O)CCC/C=C\C[C@H]1[C@@H](O)CO[C@@H]1/C=C/[C@@H](O)COc1cccc(C(F)(F)F)c1` [Compound 26], in assay [1], the Emax amounted to 74% and the EC50 is 0.187 µM. For the same molecule, at FP receptors, the IC50 was found to be 1.8 µM.

Regarding `O=C(O)CCC/C=C\C[C@H]1[C@@H](O)CO[C@@H]1/C=C/[C@H](O)COc1cccc(C(F)(F)F)c1` [Compound 27], in assay [1], the Emax was 43% and the EC50 turned out to be 0.889 µM. Moreover, the IC50 at FP receptors amounted to 15 µM.

Turning to `O=C(O)CCC/C=C\C[C@H]1[C@@H](O)CO[C@@H]1/C=C/[C@@H](O)CCc1ccccc1` [Compound 28], in assay [1], the Emax amounted to 100% and the EC50 is 0.08 µM. On FP receptors, this molecule came in with an IC50 of 1.9 µM.

As for `O=C(O)CCC/C=C\C[C@H]1[C@@H](O)CO[C@@H]1/C=C/[C@H](O)COc1ccccc1` [Compound 32], in assay [1], the Emax amounted to 100% and the EC50 amounted to 0.0486 µM. On FP receptors, this molecule gave an IC50 of 0.573 µM.

In the case of `O=C(O)CCC/C=C\C[C@H]1[C@@H](O)CO[C@@H]1/C=C/[C@@H](O)COc1ccccc1` [Compound 33], in assay [1], the Emax came to 67% and the EC50 is 0.293 µM. Besides, the IC50 on FP receptors turned out to be 0.64 µM.

With `O=C(O)CCC/C=C\C[C@H]1[C@@H](O)CO[C@@H]1/C=C/[C@H](O)COc1ccc(F)cc1` [Compound 36], in assay [1], the Emax was determined as 75% and the EC50 worked out at 1.24 µM. The molecule also showed an IC50 at FP receptors of 4.6 µM.

Regarding `O=C(O)CCC/C=C\C[C@H]1[C@@H](O)CO[C@@H]1/C=C/[C@@H](O)COc1ccc(F)cc1` [Compound 37], in assay [1], the Emax came out at 78% and the EC50 worked out at 0.437 µM. For the same molecule, the IC50 at FP receptors is 1.4 µM.

In the case of `O=C(O)CCC/C=C\C[C@@H]1C(C#C[C@H](O)COc2cccc(Cl)c2)OC[C@@H]1O` (stereo partly drawn) [Compound 38], the EC50 in assay [1] is above 10 µM. For the same molecule, the concentration for half-maximal inhibition (IC50) at FP receptors was 36 µM.

As for `O=C(O)CCC/C=C\C[C@@H]1C(C#C[C@@H](O)COc2cccc(Cl)c2)OC[C@@H]1O` (stereo partly drawn) [Compound 39], in assay [1], the Emax is 100% and the EC50 is 0.509 µM. Further, the IC50 at FP receptors amounted to 5.1 µM.

For the molecule `O=C(O)CC/C=C\CC[C@H]1[C@@H](O)CO[C@@H]1/C=C/[C@@H](O)COc1cccc(Cl)c1` [Compound 40], in assay [1], the Emax was determined as 82% and the 50% effective concentration (EC50) is 0.023 µM. Further, the IC50 on FP receptors was found to be 0.43 µM.

`O=C(O)CCC/C=C\C[C@@H]1[C@@H](CC[C@@H](F)COc2ccccc2)[C@H](O)C[C@@H]1O` [Compound 45]: in assay [1], the Emax turned out to be 79% and the EC50 amounted to 0.0095 µM. Also, the IC50 at FP receptors was 0.052 µM.

In the case of `O=C(O)CC/C=C\CC[C@H]1[C@@H](O)CO[C@@H]1/C=C/[C@H](O)COc1ccccc1` [Compound 50], in assay [1], the Emax was determined as 59% and the EC50 was determined as 0.252 µM. Moreover, at FP receptors, the IC50 is 5.1 µM.

Turning to `O=C(O)CC/C=C\CC[C@H]1[C@@H](O)CO[C@@H]1/C=C/[C@H](O)COc1cccc(C(F)(F)F)c1` [Compound 51], in assay [1], the Emax came out at 61% and the 50% effective concentration (EC50) worked out at 0.781 µM. Besides, the concentration for half-maximal inhibition (IC50) at FP receptors stood at 9.9 µM.

Turning to `O=C(O)CC/C=C\CC[C@H]1[C@@H](O)CO[C@@H]1/C=C/[C@@H](O)COc1ccccc1` [Compound 52], in assay [1], the Emax worked out at 83% and the EC50 was 0.057 µM. The molecule also gave an IC50 on FP receptors of 0.33 µM.

Turning to `O=C(O)CC/C=C\CC[C@H]1[C@@H](O)CO[C@@H]1/C=C/[C@@H](O)COc1cccc(C(F)(F)F)c1` [Compound 53], in assay [1], the Emax stood at 92% and the EC50 was determined as 0.096 µM. In addition, the IC50 at FP receptors stood at 0.35 µM.

With `O=C(O)CC/C=C\CC[C@H]1[C@@H](O)CO[C@@H]1/C=C/[C@H](O)COc1cccc(Cl)c1` [Compound 54], in assay [1], the Emax stood at 71% and the EC50 was found to be 0.249 µM. This molecule also had an IC50 on FP receptors of 0.818 µM.

As to `O=C(O)CCC/C=C\C[C@@H]1[C@@H](/C=C/[C@@H](F)COc2ccccc2)[C@H](O)C[C@@H]1O` [Compound 57], in assay [1], the Emax amounted to 104% and the EC50 amounted to 0.0038 µM. Further, the IC50 at FP receptors was determined as 0.267 µM.

Regarding `O=C(O)CCC/C=C\C[C@@H]1[C@@H](/C=C/[C@H](F)COc2ccccc2)[C@H](O)C[C@@H]1O` [Compound 60], in assay [1], the Emax is 98% and the EC50 came out at 0.096 µM. The molecule further returned an IC50 at FP receptors of 1.12 µM.

Take `O=C(O)CCC/C=C\C[C@@H]1[C@@H](/C=C/[C@H](F)COc2cccc(Cl)c2)[C@H](O)C[C@@H]1O` [Compound 62]: in assay [1], the Emax was determined as 76% and the EC50 was 0.081 µM. The same molecule came in with an IC50 at FP receptors of 0.182 µM.

On to `O=C(O)CCC/C=C\C[C@@H]1[C@@H](/C=C/[C@@H](F)COc2cccc(Cl)c2)[C@H](O)C[C@@H]1O` [Compound 63], for which, in assay [1], the Emax amounted to 84% and the EC50 was found to be 0.0022 µM. The molecule further came in with a half-inhibitory concentration (IC50) on FP receptors of 0.238 µM.

On to `O=C(O)CCC/C=C\C[C@@H]1[C@@H](OC[C@@H](O)COc2cccc(Cl)c2)[C@H](O)C[C@@H]1O` [Compound 65], for which, in assay [1], the Emax is 91% and the EC50 is 0.0578 µM. Also, the IC50 at FP receptors stood at 0.54 µM.

As to `O=C(O)CCC/C=C\C[C@@H]1[C@@H](OC[C@H](O)COc2cccc(Cl)c2)[C@H](O)C[C@@H]1O` [Compound 66], in assay [1], the Emax was determined as 56% and the EC50 turned out to be 0.503 µM. This molecule also registered an IC50 on FP receptors of 4.34 µM.

As to `O=C(O)CCC/C=C\C[C@@H]1[C@@H](OC[C@@H](O)COc2ccccc2)[C@H](O)C[C@@H]1O` [Compound 69], in assay [1], the Emax came out at 57% and the EC50 came to 0.056 µM. The same molecule showed an IC50 at FP receptors of 0.277 µM.

Take `O=C(O)CCC/C=C\C[C@@H]1[C@@H](OC[C@H](O)COc2ccccc2)[C@H](O)C[C@@H]1O` [Compound 70]: in assay [1], the Emax was 57% and the concentration for a half-maximal effect (EC50) is 0.166 µM. The IC50 at FP receptors amounted to 1.07 µM.

As to `O=C(O)CC/C=C\CC[C@@H]1[C@@H](CC[C@@H](F)COc2ccccc2)[C@H](O)C[C@@H]1O` [Compound 74], in assay [1], the Emax amounted to 67% and the EC50 was determined as 0.0088 µM. Further, the IC50 on FP receptors was found to be 0.69 µM.

As to `O=C(O)CCC/C=C\C[C@@H]1[C@@H](/C=C/[C@@H](F)COc2cccc(C(F)(F)F)c2)[C@H](O)C[C@@H]1O` [Compound 75], in assay [1], the Emax was 83% and the EC50 was determined as 0.0111 µM. The IC50 at FP receptors stood at 0.16 µM.
